Patent publication US5041567A, “Antibacterial monic acid derivatives” (Beecham Group plc, priority 1982, dated 1991)
Values after ≈ are worked out from the molar mass of the structure shown. Read-outs that look alike come from different tables or passages of the source.

What was measured:
Bacillus subtilis 6633 = assay: MIC against human bacteria in vitro; type: cell-based; details: Bacillus subtilis 6633; 5% chocolated horse blood agar, 18 hours; read-out: MIC
S. typhimurium S18 = assay: MIC against veterinary bacteria in vitro; details: Salmonella enterica, TYPHIMURIUM, 18 h
Method: (§1) The activity of the compounds of the Examples against various veterinarily important bacteria, was assayed in vitro using two-fold serial dilutions in Diagnostic Sensitivity Test Agar inoculated with 10^4 organisms.

M. suipneumoniae NB12 = assay: MIC against mycoplasma in vitro; type: cell-based; details: Mesomycoplasma hyopneumoniae
Strep. faecalis I = assay: MIC against human bacteria in vitro; type: cell-based; details: Enterococcus faecalis; Strep. faecalis I; 5% chocolated horse blood agar, 18 hours; read-out: MIC
Past. multocida PA2 = assay: MIC against veterinary bacteria in vitro; details: Pasteurella multocida, PA2, 18 h
Method: as §1

E. coli NCTC 10418 = assay: MIC against human bacteria in vitro; type: cell-based; details: Escherichia coli, NCTC10418; E. coli NCTC 10418; agar with 5% chocolated horse blood, 18 hours, 37° C.; read-out: MIC
M. suipneumoniae MS 16 = assay: MIC against mycoplasma in vitro; type: cell-based; details: Mesomycoplasma hyopneumoniae, MS16, 144 h
[1] = test system: Haemophilus influenzae Wy21; assay: MIC against human bacteria in vitro; type: cell-based; details: Haemophilus influenzae Wy21; 5% chocolated horse blood agar, 18 hours; read-out: MIC
Strep. spp. 64/848-C = assay: MIC against human bacteria in vitro; type: cell-based; details: Strep. spp. 64/848-C; 5% chocolated horse blood agar, 18 hours; read-out: MIC
[2] = test system: M. suipneumoniae ATCC 25095; assay: MIC against mycoplasma in vitro; type: cell-based; details: Mesomycoplasma hyopneumoniae, ATCC25095, 144 h
M. suipneumoniae HK(2) = assay: MIC against mycoplasma in vitro; type: cell-based; details: Mesomycoplasma hyopneumoniae, 144 h
Staph. aureus W2827 = assay: MIC against human bacteria in vitro; type: cell-based; details: Staphylococcus aureus; Staph. aureus W2827; 5% chocolated horse blood agar, 18 hours; read-out: MIC
E. coli ESS = assay: MIC against human bacteria in vitro; type: cell-based; details: Escherichia coli; E. coli ESS; 5% chocolated horse blood agar, 18 hours; read-out: MIC
Staph. aureus Russell = assay: MIC against human bacteria in vitro; type: cell-based; details: Staphylococcus aureus; Staph. aureus Russell; 5% chocolated horse blood agar, 18 hours; read-out: MIC
[3] = test system: Corynebacterium pyogenes CY1; assay: MIC against veterinary bacteria in vitro; details: CY1, 18 h
Method: as §1

[4] = test system: Ps. aeruginosa NCTC 10662; assay: MIC against human bacteria in vitro; type: cell-based; details: Pseudomonas aeruginosa, NCTC10662; Ps. aeruginosa NCTC 10662; 5% chocolated horse blood agar, 18 hours; read-out: MIC
S. dublin S7 = assay: MIC against veterinary bacteria in vitro; details: Salmonella enterica, S7, 18 h
Method: as §1

Strep. agalactiae 2788-B = assay: MIC against human bacteria in vitro; type: cell-based; details: Streptococcus agalactiae; Strep. agalactiae 2788-B; 5% chocolated horse blood agar, 18 hours; read-out: MIC
K. aerogenes A = assay: MIC against human bacteria in vitro; type: cell-based; details: Klebsiella aerogenes; K. aerogenes A; 5% chocolated horse blood agar, 18 hours; read-out: MIC
[5] = test system: Erysipelothrix rhusiopathiae NCTC 8163; assay: MIC against veterinary bacteria in vitro; details: Erysipelothrix rhusiopathiae, NCTC8163, 18 h
Method: as §1

[6] = test system: M. bovigenitalium ATCC 14173; assay: MIC against mycoplasma in vitro; type: cell-based; details: 144 h
M. suipneumoniae Str. 11 = assay: MIC against mycoplasma in vitro; type: cell-based; details: Mesomycoplasma hyopneumoniae
[7] = test system: Staph. aureus 152 (pen. sens); assay: MIC against veterinary bacteria in vitro; details: Staphylococcus aureus, 18 h
Method: as §1

Strep. dysgalactiae SPD1 = assay: MIC against veterinary bacteria in vitro; details: Streptococcus dysgalactiae, SPD1, 18 h
Method: as §1

M. hyorhinis ATCC 25021 = assay: MIC against mycoplasma in vitro; type: cell-based; details: Mesomycoplasma hyorhinis, ATCC25021, 144 h
Strep. uberis SPU1 = assay: MIC against veterinary bacteria in vitro; details: Streptococcus uberis, SPU1, 18 h
Method: as §1

Staph. aureus Oxford = assay: MIC against veterinary bacteria in vitro; details: Staphylococcus aureus, 18 h
Method: as §1

[8] = test system: Corynebacterium xerosis 9755; assay: MIC against human bacteria in vitro; type: cell-based; details: Corynebacterium xerosis 9755; 5% chocolated horse blood agar, 18 hours; read-out: MIC
M. suipneumoniae TAM 6N = assay: MIC against mycoplasma in vitro; type: cell-based; details: Mesomycoplasma hyopneumoniae, TAM6N, 144 h
M. hyorhinis ATCC 23234 = assay: MIC against mycoplasma in vitro; type: cell-based; details: Mesomycoplasma hyorhinis, ATCC23234, 144 h
Strep. pneumoniae CN33 = assay: MIC against human bacteria in vitro; type: cell-based; details: Streptococcus pneumoniae; Strep. pneumoniae CN33; 5% chocolated horse blood agar, 18 hours; read-out: MIC
[9] = test system: Neisseria catarrhalis 1502; assay: MIC against human bacteria in vitro; type: cell-based; details: Neisseria catarrhalis 1502; 5% chocolated horse blood agar, 18 hours; read-out: MIC
[10] = test system: Strep. pyogenes R80/421-A; assay: MIC against human bacteria in vitro; type: cell-based; details: Streptococcus pyogenes; Strep. pyogenes R80/421-A; 5% chocolated horse blood agar, 18 hours; read-out: MIC
M. suipneumoniae LABER = assay: MIC against mycoplasma in vitro; type: cell-based; details: Mesomycoplasma hyopneumoniae, 144 h
[11] = M. suipneumoniae ATCC 25095, 6 days, 37° C., read-out: MIC
[12] = M. suipneumoniae HK(2), 6 days, 37° C., read-out: MIC
[13] = M. bovigenitalium ATCC 14173, 6 days, 37° C., read-out: MIC
[14] = M. hyorhinis ATCC 25021, 6 days, 37° C., read-out: MIC
[15] = M. suipneumoniae TAM 6N, 6 days, 37° C., read-out: MIC
[16] = M. hyorhinis ATCC 23234, 6 days, 37° C., read-out: MIC

## C/C(=C\c1ncc(-c2ccc(C(=O)O)cc2)o1)C[C@@H]1OC[C@H](C[C@@H]2O[C@H]2[C@@H](C)[C@H](C)O)[C@@H](O)[C@H]1O [Example 17, Sodium 4-[2-(1-normon-2-yl)-5-oxazolyl] benzoate A]
Bacillus subtilis 6633
  MIC: 32 mg/L
S. typhimurium S18
  MIC: > 80 mg/L
M. suipneumoniae NB12; NB12, 144 h
  MIC: 2.5 mg/L
Strep. faecalis I
  MIC: > 64 mg/L
Past. multocida PA2
  MIC: 1.25 mg/L
E. coli NCTC 10418
  MIC: > 64 mg/L
M. suipneumoniae MS 16
  MIC: 2.5 mg/L
[1]
  MIC: 2 mg/L
Strep. spp. 64/848-C
  MIC: 32 mg/L
[2]; [11]
  MIC: 5 mg/L
M. suipneumoniae HK(2); [12]
  MIC: 10 mg/L
Staph. aureus W2827
  MIC: > 64 mg/L
E. coli ESS
  MIC: 16 mg/L
Staph. aureus Russell
  MIC: > 64 mg/L
[3]
  MIC: > 80 mg/L
[4]
  MIC: > 64 mg/L
S. dublin S7
  MIC: > 80 mg/L
Strep. agalactiae 2788-B
  MIC: 32 mg/L
K. aerogenes A
  MIC: > 64 mg/L
[5]
  MIC: 80 mg/L
[6]; [13]
  MIC: 5 mg/L
M. suipneumoniae Str. 11; STR.11, 144 h
  MIC: 2.5 mg/L
[7]
  MIC: 10 mg/L
Strep. dysgalactiae SPD1
  MIC: 2.5 mg/L
M. hyorhinis ATCC 25021; [14]
  MIC: 5 mg/L
Strep. uberis SPU1
  MIC: 1.25 mg/L
Staph. aureus Oxford
  MIC: 20 mg/L
[8]
  MIC: > 64 mg/L
M. suipneumoniae TAM 6N; [15]
  MIC: 10 mg/L
M. hyorhinis ATCC 23234; [16]
  MIC: 5 mg/L
Strep. pneumoniae CN33
  MIC: 64 mg/L
[9]
  MIC: 8 mg/L
[10]
  MIC: 4 mg/L
M. suipneumoniae LABER
  MIC: 2.5 mg/L

## C/C(=C\c1cc(-c2ccccc2)no1)C[C@@H]1OC[C@H](C[C@@H]2O[C@H]2[C@@H](C)[C@H](C)O)[C@@H](O)[C@H]1O [Example 31, 5-(1-Normon-2-yl)-3-phenylisoxazole A]
Bacillus subtilis 6633
  MIC: 64 mg/L (≈ 144 µM)
S. typhimurium S18
  MIC: > 80 mg/L
M. suipneumoniae NB12; 144 h, M. suipneumoniae NB12, Friis broth, 0.9% agarose, 6 days, 37° C., read-out: MIC
  MIC: 10 mg/L (≈ 22.5 µM)
Strep. faecalis I
  MIC: > 128 mg/L
E. coli NCTC 10418
  MIC: > 128 mg/L
M. suipneumoniae MS 16; M. suipneumoniae MS 16, 6 days, 37° C., read-out: MIC
  MIC: 5 mg/L (≈ 11.3 µM)
[1]
  MIC: 16 mg/L (≈ 36.1 µM)
Strep. spp. 64/848-C
  MIC: > 128 mg/L
[2]; [11]
  MIC: 5 mg/L (≈ 11.3 µM)
M. suipneumoniae HK(2); [12]
  MIC: 10 mg/L (≈ 22.5 µM)
Staph. aureus W2827
  MIC: 128 mg/L (≈ 289 µM)
E. coli ESS
  MIC: 64 mg/L (≈ 144 µM)
Staph. aureus Russell
  MIC: 128 mg/L (≈ 289 µM)
[3]
  MIC: > 80 mg/L
[4]
  MIC: > 128 mg/L
S. dublin S7
  MIC: > 80 mg/L
Strep. agalactiae 2788-B
  MIC: > 128 mg/L
K. aerogenes A
  MIC: > 128 mg/L
[5]
  MIC: > 80 mg/L
[6]; [13]
  MIC: 5 mg/L (≈ 11.3 µM)
M. suipneumoniae Str. 11; 144 h, M. suipneumoniae Str. 11, 6 days, 37° C., read-out: MIC
  MIC: 5 mg/L (≈ 11.3 µM)
[7]
  MIC: 10 mg/L (≈ 22.5 µM)
Strep. dysgalactiae SPD1
  MIC: > 80 mg/L
M. hyorhinis ATCC 25021; [14]
  MIC: 5 mg/L (≈ 11.3 µM)
Strep. uberis SPU1
  MIC: 40 mg/L (≈ 90.2 µM)
Staph. aureus Oxford
  MIC: 20 mg/L (≈ 45.1 µM)
[8]
  MIC: > 128 mg/L
M. suipneumoniae TAM 6N; [15]
  MIC: 10 mg/L (≈ 22.5 µM)
M. hyorhinis ATCC 23234; [16]
  MIC: 5 mg/L (≈ 11.3 µM)
Strep. pneumoniae CN33
  MIC: > 128 mg/L
[9]
  MIC: 8 mg/L (≈ 18 µM)
[10]
  MIC: 128 mg/L (≈ 289 µM)
M. suipneumoniae LABER; M. suipneumoniae LABER, 6 days, 37° C., read-out: MIC
  MIC: 10 mg/L (≈ 22.5 µM)

## C/C(=C\c1cc(-c2ccccc2)on1)C[C@@H]1OC[C@H](C[C@@H]2O[C@H]2[C@@H](C)[C@H](C)O)[C@@H](O)[C@H]1O [Example 34, 3-(1-Normon-2-yl)-5-phenylisoxazole A]
Bacillus subtilis 6633
  MIC: 4 mg/L (≈ 9.02 µM)
S. typhimurium S18
  MIC: > 80 mg/L
M. suipneumoniae NB12; NB12, 144 h
  MIC: 2.5 mg/L (≈ 5.64 µM)
Strep. faecalis I
  MIC: > 128 mg/L
E. coli NCTC 10418
  MIC: > 128 mg/L
M. suipneumoniae MS 16
  MIC: 1 mg/L (≈ 2.25 µM)
[1]
  MIC: 2 mg/L (≈ 4.51 µM)
Strep. spp. 64/848-C
  MIC: 64 mg/L (≈ 144 µM)
[2]
  MIC: 1 mg/L (≈ 2.25 µM)
M. suipneumoniae HK(2)
  MIC: 2.5 mg/L (≈ 5.64 µM)
Staph. aureus W2827
  MIC: 16 mg/L (≈ 36.1 µM)
E. coli ESS
  MIC: 16 mg/L (≈ 36.1 µM)
Staph. aureus Russell
  MIC: 16 mg/L (≈ 36.1 µM)
[3]
  MIC: > 80 mg/L
[4]
  MIC: > 128 mg/L
S. dublin S7
  MIC: > 80 mg/L
Strep. agalactiae 2788-B
  MIC: 64 mg/L (≈ 144 µM)
K. aerogenes A
  MIC: > 128 mg/L
[5]
  MIC: > 80 mg/L
[6]
  MIC: 1 mg/L (≈ 2.25 µM)
M. suipneumoniae Str. 11; STR.11, 144 h
  MIC: 1 mg/L (≈ 2.25 µM)
[7]
  MIC: 2.5 mg/L (≈ 5.64 µM)
Strep. dysgalactiae SPD1
  MIC: 10 mg/L (≈ 22.5 µM)
M. hyorhinis ATCC 25021
  MIC: 1 mg/L (≈ 2.25 µM)
Strep. uberis SPU1
  MIC: 5 mg/L (≈ 11.3 µM)
Staph. aureus Oxford
  MIC: 5 mg/L (≈ 11.3 µM)
[8]
  MIC: > 128 mg/L
M. suipneumoniae TAM 6N
  MIC: 2.5 mg/L (≈ 5.64 µM)
M. hyorhinis ATCC 23234
  MIC: 2.5 mg/L (≈ 5.64 µM)
Strep. pneumoniae CN33
  MIC: 64 mg/L (≈ 144 µM)
[9]
  MIC: 4 mg/L (≈ 9.02 µM)
[10]
  MIC: 8 mg/L (≈ 18 µM)
M. suipneumoniae LABER
  MIC: 1 mg/L (≈ 2.25 µM)
